Reference: article PMC8586700 (Frontiers in Pharmacology, 2021)
Like-named read-outs stand apart in the source and are kept apart here.

Tests used:
[1] = Pharmacokinetic experiment, single intragastric administration, plasma by HPLC-UV; assay type: in vivo, SD rats; settings: for AUC / Cmax / half-life / Tmax / concentration at 40 min / concentration at 60 min / concentration at 90 min / concentration at 150 min / concentration at 210 min: SD (Sprague-Dawley); for AUC / Cmax / half-life / Tmax / concentration at 40 min / concentration at 60 min / concentration at 90 min / concentration at 150 min / concentration at 210 min / concentration at 20 min / concentration at 270 min / concentration at 330 min: rat, plasma, po; for AUC / Cmax / half-life / Tmax: 200 mg/kg; for AUC: read-out: AUC(0-tn) of DHC (converted); for Cmax: read-out: Cmax of DHC; for half-life: read-out: T1/2 of DHC; for Tmax: read-out: Tmax of DHC (converted); for concentration at 40 min / concentration at 60 min / concentration at 90 min / concentration at 150 min / concentration at 210 min / concentration at 20 min / concentration at 270 min / concentration at 330 min: read-out: Mean concentrations ±sd, DHC; for concentration at 20 min / concentration at 270 min / concentration at 330 min: SD
Description: An Agilent 1200 HPLC system was used. […] The flow rate was set at 1 ml min^−1 and detection wavelength was 420, 340 and 323 nm. Injection volume was 5 μL. The column temperature was set at 30°C.
(§1) Plasma or brain homogenate of SD rats was taken 50 μL, internal standard solution of 50 μL and protein precipitator of 150 μL were added. After eddy oscillation for 3 min, supernatant was separated by centrifugation.
Blood samples were collected from tail vein at 20 min, 40 min, 1, 1.5, 2.5, 3.5, 4.5, and 5.5 h after intragastric administration.
(§2) Plasma was collected by centrifugation of blood at 3000 RPM for 10min, and stored at -80 °C. Brain tissue of SD rat was dissected, weighed and added with normal saline at a volume of 2 ml g^−1. After homogenating brain tissue for 3 min by a homogenizer at 14,000 RPM, the supernatant was collected after centrifugation at 12,000 RPM for 10 min.

[2] = Stability experiment in plasma and brain homogenate samples; assay type: in vitro ADME, SD rats
Description: Three blank samples of plasma and brain homogenate of SD rats were added into the mixed standard solution. The stability experiment included placing at room temperature for 12 h, repeatedly freeze-thaw for three times and frozen for 15 days.

[3] = Repeated administration, drug concentrations of plasma and brain; assay type: in vivo, SD rats; settings: for Mean concentrations±sd, DHC in plasma after multiple doses: loading dose then half doses for four consecutive days
Description: as §1
The concentration of drugs in plasma and brain homogenate after repeated administration was determined according to the same grouping and administration method. The loading dose of 200 mg kg^−1 was given for the first time and half doses for four consecutive days.
as §2

[4] = Group A: CUR 200 mg kg^−1 oral alone
[5] = Group B: CUR 200 mg kg^−1 and PIP 150 mg kg^−1 oral
[6] = Group C: CUR 200 mg kg^−1 and ILE 150 mg kg^−1 oral
[7] = Group A (CUR 200 mg kg^−1 oral alone)
[8] = Group B (CUR 200 mg kg^−1 and PIP 150 mg kg^−1 oral)
[9] = Group C (CUR 200 mg kg^−1 and ILE 150 mg kg^−1 oral)
[10] = combined CUR and ILE compared with CUR alone
[11] = combined CUR and ILE compared with combined administration with PIP
[12] = combined CUR and PIP compared with single CUR administration

COc1cc(/C=C/C(=O)CC(=O)CCc2ccc(O)c(OC)c2)ccc1O [DHC, Dihydrocurcumin]
CL of DHC [1, 4]: 233.2 ± 7.8 mL/min | Vd of DHC [1, 4]: 9,087.6 ± 302.9 mL | CL of DHC [1, 5]: 70.0 ± 3.3 mL/min | Vd of DHC [1, 5]: 2,802.6 ± 133.4 mL | CL of DHC [1, 6]: 52.7 ± 2.3 mL/min | Vd of DHC [1, 6]: 3,751.4 ± 165.6 mL | AUC [1, 4]: 7610 ng·h/mL | Cmax [1, 4]: 6100 ± 3200 ng/mL | half-life [1, 4]: 24.8 ± 9.3 min | Tmax [1, 4]: 26 min | AUC [1, 5]: 7060 ng·h/mL | Cmax [1, 5]: 7500 ± 1100 ng/mL | half-life [1, 5]: 25.4 ± 6.3 min | Tmax [1, 5]: 22 min | AUC [1, 6]: 16800 ng·h/mL | Cmax [1, 6]: 9200 ± 2400 ng/mL | half-life [1, 6]: 114 ± 31.2 min | Tmax [1, 6]: 18 min | concentration at 40 min [1, 7]: 3500 ± 900 ng/mL | concentration at 60 min [1, 7]: 1800 ± 500 ng/mL | concentration at 90 min [1, 7]: 1400 ± 500 ng/mL | concentration at 150 min [1, 7]: 1200 ± 700 ng/mL | concentration at 210 min [1, 7]: 1100 ± 300 ng/mL | concentration at 40 min [1, 8]: 4000 ± 600 ng/mL | concentration at 60 min [1, 8]: 2600 ± 500 ng/mL | concentration at 90 min [1, 8]: 2000 ± 400 ng/mL | concentration at 150 min [1, 8]: 1000 ± 300 ng/mL | concentration at 210 min [1, 8]: 600 ± 200 ng/mL | concentration at 40 min [1, 9]: 6300 ± 700 ng/mL | concentration at 60 min [1, 9]: 4800 ± 700 ng/mL | concentration at 90 min [1, 9]: 4000 ± 1200 ng/mL | concentration at 150 min [1, 9]: 3800 ± 700 ng/mL | concentration at 210 min [1, 9]: 2600 ± 100 ng/mL | concentration at 20 min [1, 7]: 6100 ± 3200 ng/mL | concentration at 270 min [1, 7]: 900 ± 400 ng/mL | concentration at 330 min [1, 7]: 800 ± 400 ng/mL | concentration at 20 min [1, 8]: 7500 ± 1100 ng/mL | concentration at 270 min [1, 8]: 250 ± 30 ng/mL | concentration at 330 min [1, 8]: 150 ± 30 ng/mL | concentration at 20 min [1, 9]: 9200 ± 2400 ng/mL | concentration at 270 min [1, 9]: 1400 ± 700 ng/mL | concentration at 330 min [1, 9]: 600 ± 200 ng/mL | AUC(0-tn) of DHC increased by [1, 10]: 1.2 times | CL of DHC reduced by [1, 10]: 77.4% | Cmax of DHC increased by [1, 10]: 50.8% | T1/2 of DHC increased by [1, 10]: 3.6 times | Tmax of DHC decreased by [1, 10]: 30.8% | Vd of DHC reduced by [1, 10]: 58.6% | Vd of DHC increased by ([1]; combined CUR and ILE compared with CUR and PIP combined): 34% | CL of DHC reduced by ([1]; combined CUR and ILE compared with CUR combined with PIP): 24.6% | AUC(0-tn) of DHC increased by [1, 11]: 1.4 times | Cmax of DHC increased by [1, 11]: 22.7% | T1/2 of DHC increased by [1, 11]: 3.5 times | Tmax of DHC decreased by [1, 11]: 18.2% | AUC(0-tn) of DHC decreased by [1, 12]: 7.2% | CL of DHC decreased by [1, 12]: 70% | Cmax of DHC increased by [1, 12]: 23% | Tmax of DHC decreased by [1, 12]: 15.4% | Vd of DHC decreased by [1, 12]: 69.2% | Recoveries after repeated freezing-thawing for three times ([2]; plasma): over 100% | Recoveries after being kept at room temperature for 12 h ([2]; plasma samples): less than 30% | Mean concentrations±sd, DHC in plasma after multiple doses ([3]; Group I: CUR): 1400 ± 600 ng/mL | Mean concentrations±sd, DHC in plasma after multiple doses ([3]; Group II: CUR and PIP): 4600 ± 1800 ng/mL | Mean concentrations±sd, DHC in plasma after multiple doses ([3]; Group III: CUR and ILE): 8700 ± 2500 ng/mL | Detection in brain tissue ([3]; after repeated administration): could not be detected
